Source: PMC12627933, “A First-In-Human Study of the SUMOylation Inhibitor Subasumstat in Patients with Advanced/Metastatic Solid Tumors or Relapsed/Refractory Hematologic Malignancies” (Cancer Research Communications, 2025)

Assay: Safety: treatment-emergent adverse events (NCI CTCAE v5.0; CRS per ASTCT), phase I/II study NCT03648372
Assay type: in vivo
Protocol: This study comprised two parts: a phase I dose escalation and a phase II dose expansion (Fig. 1). In the dose-escalation phase, patients were enrolled to receive subasumstat intravenously as a 1-hour (±10 minutes) infusion on days 1, 4, 8, and 11 of a 21-day cycle (biweekly schedule). […] Dose escalation was based on cohort with an adaptive design using Bayesian logistic regression modeling with overdose control. The starting dose of subasumstat was based on Good Laboratory Practice animal toxicity studies and supported by the estimation of a minimum anticipated biologically effective level. A detailed description of dose-limiting toxicities (DLT) is presented in the Supplementary Methods.
The phase II dose-expansion portion enrolled patients to receive the recommended phase II dose (RP2D) determined in phase I, with each cohort assessed separately using an adaptive two-stage design for a single proportion (see Supplementary Methods). For stage 1, each cohort was analyzed when a prespecified number of patients were enrolled and had the potential to have at least one posttreatment scan [i.e., after the first disease assessment, 2 months from cycle 1 day 1 (C1D1)]. If the prespecified minimal response rate was not achieved in the first stage for a given cohort, that cohort would be closed to enrollment. […] The final analysis of the primary endpoints for each cohort would take place when all ongoing patients had the opportunity to complete the 6-month disease assessment. Across both phases, patients received subasumstat for up to 1 year or until confirmed disease progression, unacceptable toxicity, if any withdrawal criterion from the study was met, or if discontinuation of subasumstat occurred.
The occurrence of DLTs was assessed during cycle 1 (DLTs are described in the Supplementary Methods). Treatment-emergent adverse events (TEAE) were graded according to NCI Common Terminology Criteria for Adverse Events version 5.0, except for cytokine release syndrome (CRS), which was graded according to the American Society for Transplantation and Cellular Therapy Consensus Grading for CRS ([20]).
It was anticipated that approximately 70 DLT-evaluable patients would be enrolled for dose escalation. The safety analysis set included all patients who received at least one dose, even if incomplete, of subasumstat. […] The overall response rate (ORR) was defined as the proportion of patients who achieved complete response and partial response (PR) during the study. The disease control rate (DCR) was defined as the proportion of patients who achieved […] as per RECIST v1.1 for solid tumors or Lugano classification for lymphomas. […] Progression-free survival was summarized descriptively using the Kaplan–Meier method.

## Cc1sc(C(=O)c2cncnc2N[C@@H]2C[C@H](COS(N)(=O)=O)[C@@H](O)C2)cc1[C@@H]1NCCc2ccc(Cl)cc21 [subasumstat]
Phase I (n = 84)
  AESI (adverse event of special interest): 9 (10.7) n (%)
  AESI related to subasumstat: 9 (10.7) n (%)
  AESI: CRS: 9 (10.7) n (%)
  Grade ≥3 TEAE: Abdominal pain: 4 (4.8) n (%)
  Grade ≥3 TEAE: Acute kidney injury: 2 (2.4) n (%)
  Grade ≥3 TEAE: Anemia: 9 (10.7) n (%)
  Grade ≥3 TEAE: Aspartate aminotransferase increased: 2 (2.4) n (%)
  Grade ≥3 TEAE: Blood bilirubin increased: 2 (2.4) n (%)
  Grade ≥3 TEAE: Dyspnea: 4 (4.8) n (%)
  Grade ≥3 TEAE: Fatigue: 5 (6.0) n (%)
  Grade ≥3 TEAE: Hyperbilirubinemia: 0 n (%)
  Grade ≥3 TEAE: Hypertension: 1 (1.2) n (%)
  Grade ≥3 TEAE: Hypokalemia: 7 (8.3) n (%)
  Grade ≥3 TEAE: Hypomagnesemia: 2 (2.4) n (%)
  Grade ≥3 TEAE: Hypophosphatemia: 2 (2.4) n (%)
  Grade ≥3 TEAE: Lymphocyte count decreased: 5 (6.0) n (%)
  Grade ≥3 TEAE: Lymphopenia: 1 (1.2) n (%)
  Grade ≥3 TEAE: Muscular weakness: 0 n (%)
  Grade ≥3 TEAE: Nausea: 2 (2.4) n (%)
  Grade ≥3 TEAE: Neutropenia: 0 n (%)
  Grade ≥3 TEAE: Platelet count increased: 1 (1.2) n (%)
  Grade ≥3 TEAE: Pleural effusion: 2 (2.4) n (%)
  Grade ≥3 TEAE: Pneumonia: 1 (1.2) n (%)
  Grade ≥3 TEAE: Pneumonitis: 2 (2.4) n (%)
  Grade ≥3 TEAE: Pyrexia: 2 (2.4) n (%)
  Grade ≥3 TEAE: Small intestinal obstruction: 4 (4.8) n (%)
  Grade ≥3 TEAE: Thrombocytopenia: 1 (1.2) n (%)
  Grade ≥3 TEAE: Vomiting: 4 (4.8) n (%)
  Grade ≥3 TEAEs: 48 (57.1) n (%)
  Grade ≥3 TEAEs related to subasumstat: 18 (21.4) n (%)
  Grade ≥3 subasumstat-related TEAE: Anemia: 1 (1.2) n (%)
  Grade ≥3 subasumstat-related TEAE: Aspartate aminotransferase increased: 2 (2.4) n (%)
  Grade ≥3 subasumstat-related TEAE: Hypokalemia: 2 (2.4) n (%)
  Grade ≥3 subasumstat-related TEAE: Lymphocyte count decreased: 4 (4.8) n (%)
  Grade ≥3 subasumstat-related TEAE: Muscular weakness: 0 n (%)
  Grade ≥3 subasumstat-related TEAE: Neutropenia: 0 n (%)
  Grade ≥3 subasumstat-related TEAE: Platelet count increased: 1 (1.2) n (%)
  Grade ≥3 subasumstat-related TEAE: Pneumonitis: 2 (2.4) n (%)
  Grade ≥3 subasumstat-related TEAE: Thrombocytopenia: 1 (1.2) n (%)
  On-study deaths: 10 (11.9) n (%)
  Patients with at least one grade ≥3 TEAE: 48 (57.1) n (%)
  Patients with at least one grade ≥3 subasumstat-related TEAE: 18 (21.4) n (%)
  Serious adverse events: 37 (44.0) n (%)
  Serious adverse events related to subasumstat: 7 (8.3) n (%)
  Subasumstat-related TEAE: Anemia: 4 (4.8) n (%)
  Subasumstat-related TEAE: CRS: 9 (10.7) n (%)
  Subasumstat-related TEAE: Chills: 17 (20.2) n (%)
  Subasumstat-related TEAE: Decreased appetite: 10 (11.9) n (%)
  Subasumstat-related TEAE: Diarrhea: 15 (17.9) n (%)
  Subasumstat-related TEAE: Dyspnea: 4 (4.8) n (%)
  Subasumstat-related TEAE: Fatigue: 27 (32.1) n (%)
  Subasumstat-related TEAE: Headache: 21 (25.0) n (%)
  Subasumstat-related TEAE: Hypokalemia: 7 (8.3) n (%)
  Subasumstat-related TEAE: IRR: 5 (6.0) n (%)
  Subasumstat-related TEAE: Myalgia: 6 (7.1) n (%)
  Subasumstat-related TEAE: Nausea: 29 (34.5) n (%)
  Subasumstat-related TEAE: Pyrexia: 23 (27.4) n (%)
  Subasumstat-related TEAE: Vomiting: 13 (15.5) n (%)
  TEAE: Abdominal distension: 11 (13.1) n (%)
  TEAE: Abdominal pain: 17 (20.2) n (%)
  TEAE: Anemia: 12 (14.3) n (%)
  TEAE: Arthralgia: 12 (14.3) n (%)
  TEAE: Back pain: 12 (14.3) n (%)
  TEAE: CRS: 9 (10.7) n (%)
  TEAE: Chills: 20 (23.8) n (%)
  TEAE: Constipation: 14 (16.7) n (%)
  TEAE: Decreased appetite: 26 (31.0) n (%)
  TEAE: Dehydration: 10 (11.9) n (%)
  TEAE: Diarrhea: 29 (34.5) n (%)
  TEAE: Dyspnea: 22 (26.2) n (%)
  TEAE: Fatigue: 42 (50.0) n (%)
  TEAE: Headache: 30 (35.7) n (%)
  TEAE: Hypophosphatemia: 11 (13.1) n (%)
  TEAE: Insomnia: 11 (13.1) n (%)
  TEAE: Nausea: 41 (48.8) n (%)
  TEAE: Peripheral edema: 15 (17.9) n (%)
  TEAE: Pleural effusion: 9 (10.7) n (%)
  TEAE: Pyrexia: 28 (33.3) n (%)
  TEAE: Stomatitis: 8 (9.5) n (%)
  TEAE: Vomiting: 27 (32.1) n (%)
  TEAEs: 81 (96.4) n (%)
  TEAEs leading to discontinuation: 8 (9.5) n (%)
  TEAEs leading to discontinuation related to subasumstat: 3 (3.6) n (%)
  TEAEs related to subasumstat: 65 (77.4) n (%)
Phase II (n = 25)
  AESI (adverse event of special interest): 3 (12.0) n (%)
  AESI related to subasumstat: 3 (12.0) n (%)
  AESI: CRS: 3 (12.0) n (%)
  Grade ≥3 TEAE: Abdominal pain: 2 (8.0) n (%)
  Grade ≥3 TEAE: Acute kidney injury: 2 (8.0) n (%)
  Grade ≥3 TEAE: Anemia: 5 (20.0) n (%)
  Grade ≥3 TEAE: Aspartate aminotransferase increased: 0 n (%)
  Grade ≥3 TEAE: Blood bilirubin increased: 0 n (%)
  Grade ≥3 TEAE: Dyspnea: 0 n (%)
  Grade ≥3 TEAE: Fatigue: 0 n (%)
  Grade ≥3 TEAE: Hyperbilirubinemia: 2 (8.0) n (%)
  Grade ≥3 TEAE: Hypertension: 1 (4.0) n (%)
  Grade ≥3 TEAE: Hypokalemia: 0 n (%)
  Grade ≥3 TEAE: Hypomagnesemia: 0 n (%)
  Grade ≥3 TEAE: Hypophosphatemia: 0 n (%)
  Grade ≥3 TEAE: Lymphocyte count decreased: 0 n (%)
  Grade ≥3 TEAE: Lymphopenia: 1 (4.0) n (%)
  Grade ≥3 TEAE: Muscular weakness: 2 (8.0) n (%)
  Grade ≥3 TEAE: Nausea: 0 n (%)
  Grade ≥3 TEAE: Neutropenia: 4 (16.0) n (%)
  Grade ≥3 TEAE: Platelet count increased: 2 (8.0) n (%)
  Grade ≥3 TEAE: Pleural effusion: 0 n (%)
  Grade ≥3 TEAE: Pneumonia: 1 (4.0) n (%)
  Grade ≥3 TEAE: Pneumonitis: 0 n (%)
  Grade ≥3 TEAE: Pyrexia: 0 n (%)
  Grade ≥3 TEAE: Small intestinal obstruction: 0 n (%)
  Grade ≥3 TEAE: Thrombocytopenia: 1 (4.0) n (%)
  Grade ≥3 TEAE: Vomiting: 0 n (%)
  Grade ≥3 TEAEs: 18 (72.0) n (%)
  Grade ≥3 TEAEs related to subasumstat: 11 (44.0) n (%)
  Grade ≥3 subasumstat-related TEAE: Anemia: 3 (12.0) n (%)
  Grade ≥3 subasumstat-related TEAE: Aspartate aminotransferase increased: 0 n (%)
  Grade ≥3 subasumstat-related TEAE: Hypokalemia: 0 n (%)
  Grade ≥3 subasumstat-related TEAE: Lymphocyte count decreased: 0 n (%)
  Grade ≥3 subasumstat-related TEAE: Muscular weakness: 2 (8.0) n (%)
  Grade ≥3 subasumstat-related TEAE: Neutropenia: 4 (16.0) n (%)
  Grade ≥3 subasumstat-related TEAE: Platelet count increased: 2 (8.0) n (%)
  Grade ≥3 subasumstat-related TEAE: Pneumonitis: 0 n (%)
  Grade ≥3 subasumstat-related TEAE: Thrombocytopenia: 1 (4.0) n (%)
  On-study deaths: 2 (8.0) n (%)
  Patients with at least one grade ≥3 TEAE: 18 (72.0) n (%)
  Patients with at least one grade ≥3 subasumstat-related TEAE: 11 (44.0) n (%)
  Serious adverse events: 11 (44.0) n (%)
  Serious adverse events related to subasumstat: 5 (20.0) n (%)
  Subasumstat-related TEAE: Anemia: 4 (16.0) n (%)
  Subasumstat-related TEAE: CRS: 3 (12.0) n (%)
  Subasumstat-related TEAE: Chills: 6 (24.0) n (%)
  Subasumstat-related TEAE: Decreased appetite: 3 (12.0) n (%)
  Subasumstat-related TEAE: Diarrhea: 6 (24.0) n (%)
  Subasumstat-related TEAE: Dyspnea: 2 (8.0) n (%)
  Subasumstat-related TEAE: Fatigue: 7 (28.0) n (%)
  Subasumstat-related TEAE: Headache: 5 (20.0) n (%)
  Subasumstat-related TEAE: Hypokalemia: 0 n (%)
  Subasumstat-related TEAE: IRR: 1 (4.0) n (%)
  Subasumstat-related TEAE: Myalgia: 2 (8.0) n (%)
